According to patent US12398106B2, “Catecholamine carbamate prodrugs for use in the treatment of parkinson's disease” (H. Lundbeck A/S, priority 2019, dated 2025):

How the values were obtained:
[1] = PK experiments in rats: plasma compound (I) after oral dosing of prodrug; settings: for Plasma concentrations / exposure of compound (I) after oral dosing of prodrug (in words): Wistar rats, doses equal to 287 μg/kg of compound (I); for Observed metabolite, in vivo PK study after oral dosing (rats): plasma
Experimental: For all the experiments, blood samples of approximately 0.68 mL were drawn from the tail or sublingual vein and put into K3EDTA tubes that had been pre-cooled and prepared with stabilizing solution consisting of 80 μL ascorbic acid and 40 μL 100 mM D-saccharic acid 1,4 lactone in water. The tubes were inverted gently 6-8 times to ensure thorough mixing and then placed in wet ice. The collecting tube was placed in wet ice for up to 30 minutes until centrifugation. Once removed from the wet ice the centrifugation was initiated immediately. Immediately after end of centrifugation the samples were returned to wet ice. Three sub-samples of 130 μL plasma were transferred to each of three appropriately labelled cryo tubes containing 6.5 μL pre-cooled formic acid (20%) (the tubes were pre-spiked and stored refrigerated prior to use). The tube lid was immediately replaced, and the plasma solution was thoroughly mixed by inverting gently 6-8 times. The samples were stored frozen at nominally −70° C. within 60 minutes after sampling. Centrifugation conditions at 3000 G for 10 minutes at 4° C. Plasma was placed on water-ice following collection. Final storage at approximately −70° C.
Plasma samples were analyzed by solid phase extraction or direct protein precipitation followed by UPLC-MS/MS. MS detection using electrospray in the positive ion mode with monitoring of specific mass-to-charge transitions for compound (I) using internal standards for correcting the response. The concentration-time data was analyzed, using standard software using appropriate noncompartmental techniques to obtain estimates of the derived PK parameters.
Mass spectrometer (LC-MS/MS) Waters Acquity-Sciex API 5000. Analytical column Waters BEH UPLC Phenyl 100×2.1 mm column, 1.7 μm particle size. Mobile phase A: 20 mM ammonium formate (aq)+0.5% formic acid. Mobile phase B: Acetonitrile. Gradient run from 95/5% to 2/98 in 6.1 minutes. Flow rate 0.5 mL/min. MRM monitoring (multiple reaction monitoring) of test item and the added analytical standards
Han Wistar rats were supplied by Charles River Laboratories, Sulzfeld, Germany. An artificial, automatically controlled, light and dark cycle of 12 hours was maintained. The rats received a standard laboratory diet from Brogaarden (Altromin 1324 pellets). The rats had unrestricted access to the diet.
Mass spectrometer (LC-MS/MS) Waters Acquity-Sciex API 5000. Analytical column Waters BEH UPLC Phenyl 100×2.1 mm column, 1.7 μm particle size. Mobile phase A: 20 mM ammonium formate (aq)+0.5% formic acid. Mobile phase B: Acetonitrile. Gradient run from 95/5% to 2/98 in 6.1 minutes. Flow rate 0.5 mL/min. MRM monitoring of test item and the added analytical standards.
Han Wistar rats were supplied by Charles River Laboratories, UK. An artificial, automatically controlled, light and dark cycle of 12 hours was maintained. The rats received a standard laboratory diet (Teklad 2014C Diet.). The rats had unrestricted access to the diet.
Mass spectrometer (LC-MS/MS) Waters Acquity—Waters Xevo TQ-S. Analytical column Acquity BEH C18 100×2.1 mm, 1.7 μm. Mobile phase A: 20 mM NH4—Formate+0.2% formic acid. Mobile phase B: Acetonitrile+0.2% formic acid. Gradient run from 95/5% to 5/95% in 11.0 minutes. Flow rate 0.3 mL/min. MRM monitoring of test item and the added analytical standards.
Han Wistar rats were supplied by Envigo, UK.

[2] = man, after oral dosing; cited from earlier work
human 5-HT2B receptor [3] = biological target: T1, human 5-HT2B receptor (Homo sapiens, UniProt P41595); assay: 5-HT2B radioligand binding assay ([125I](±)DOI, CHO cell membranes); settings: read-out: 5-HT2B % at single concentration (binding affinity, % inhibition of control specific binding per footnote)
T1 construct: host or cells: CHO cells
Experimental: Evaluation of the affinity of compounds for the human 5-HT2B receptor was determined in a radioligand binding assay at Eurofins/Cerep (France). Membrane homogenates prepared from CHO cells expressing the human 5HT2B receptor were incubated for 60 minutes at room temperature with 0.2 nM [125I](±)DOI (1-(4-iodo-2, 5-dimethoxyphenyl)propan-2-amine) in the absence or presence of the test compound in a buffer containing 50 mM Tris-HCl (pH 7.4), 5 mM MgCl2, 10 μM pargyline and 0.1% ascorbic acid. Nonspecific binding is determined in the presence of 1 μM (±)DOI. Following incubation, the samples were filtered rapidly under vacuum through glass fiber filters (GF/B, Packard) presoaked with 0.3% polyethyleneimine (PEI) and rinsed several times with ice-cold 50 mM Tris-HCl using a 96-sample cell harvester (Unifilter, Packard). The filters were dried and counted for radioactivity in a scintillation counter (Topcount, Packard) using a scintillation cocktail (Microscint 0, Packard). The results are expressed as a percent inhibition of the control radioligand specific binding. The standard reference compound was (±)DOI, which was tested in each experiment at several concentrations to obtain a competition curve from which its IC50 is calculated.

[4] = Conversion of compounds in human plasma (incubation, LC-MS/MS); format: in vitro ADME; settings: for Observed metabolite, incubation in human plasma: 1 μM test compound, 37° C., 0 to 6 hours
Experimental: Frozen human plasma was thawed and then centrifuged at 3200×g for 5 minutes to remove debris. The pH value of the supernatant was then measured and adjusted to 7.4±0.1 by adding 1% phosphoric acid or 1 N sodium hydroxide. 2 μL of dosing solution (50 μM for test compounds and 100 μM for positive control (propantheline bromide)) was mixed with 98 μL of blank plasma to achieve 1 μM test compound and 2 μM positive control of final concentration. The mixture was incubated, and samples were withdrawn from the incubations at the pre-determined time points of 0, 0.5, 1, 2, 4 and 6 hours (in duplicate) at 37° C. in water bath. At each corresponding time point 10 μL inhibitor and 20 μL ascorbic acid and 2 μL formic acid (20%) are added, and then added 400 μL of “stop solution” (200 ng/mL tolbutamide plus 200 ng/mL labetalol in 50% ACN/MeOH) to precipitate protein. The substance was mixed thoroughly and thereafter Centrifugated at 4,000 rpm for 20 minutes. Then an aliquot of supernatant (50 μL) was transferred from each well to a sample plate and mixed with 100 μL ultrapure water. The plate was shaked at 800 rpm for about 10 minutes before submitting to LC-MS/MS analysis.
Mass spectrometer (LC-MS/MS) Shimadzu LC 20-AD Shimadzu UHPLC API 4000. Analytical column ACQUITY UPLC® BEH Phenyl 1.7 μm 2.1×50 mm. Mobile phase A: 0.1% Formic Acid in Water. Mobile phase B: 0.1% Formic Acid in Acetonitrile. […] Flow rate 0.7 mL/min.

human 5-HT2B receptor [5] = biological target: T1, human 5-HT2B receptor; assay: 5-HT2B agonist activity assay (IP1 production, HTRF, transfected CHO cells); format: cell-based
Experimental: Evaluation of the agonist activity of compounds (I), (Ia) and (Ib) at the human 5-HT2B receptor was performed by Eurofins/Cerep (France) measuring the compound effects on inositol monophosphate (IP1) production using the HTRF detection method. Briefly, the human 5-HT2B receptor was expressed in transfected CHO cells. The cells were suspended in a buffer containing 10 mM Hepes/NaOH (pH 7.4), 4.2 mM KCl, 146 mM NaCl, 1 mM CaCl2, 0.5 mM MgCl2, 5.5 mM glucose and 50 mM LiCl, then distributed in microplates at a density of 4100 cells/well and incubated for 30 min at 37° C. in the presence of buffer (basal control), test compound or reference agonist. For stimulated control measurement, separate assay wells contained 1 μM 5-HT. Following incubation, the cells were lysed and the fluorescence acceptor (fluorophen D2-labeled IP1) and fluorescence donor (anti-IP1 antibody labeled with europium cryptate) were added. After 60 minutes at room temperature, the fluorescence transfer was measured at lambda(Ex) 337 nm and lambda (Em) 620 and 665 nm using a microplate reader (Rubystar, BMG). The IP1 concentration was determined by dividing the signal measured at 665 nm by that measured at 620 nm (ratio). The results were expressed as a percent of the control response to 1 μM 5-HT. […]

T1 sequence (P41595 whole entry): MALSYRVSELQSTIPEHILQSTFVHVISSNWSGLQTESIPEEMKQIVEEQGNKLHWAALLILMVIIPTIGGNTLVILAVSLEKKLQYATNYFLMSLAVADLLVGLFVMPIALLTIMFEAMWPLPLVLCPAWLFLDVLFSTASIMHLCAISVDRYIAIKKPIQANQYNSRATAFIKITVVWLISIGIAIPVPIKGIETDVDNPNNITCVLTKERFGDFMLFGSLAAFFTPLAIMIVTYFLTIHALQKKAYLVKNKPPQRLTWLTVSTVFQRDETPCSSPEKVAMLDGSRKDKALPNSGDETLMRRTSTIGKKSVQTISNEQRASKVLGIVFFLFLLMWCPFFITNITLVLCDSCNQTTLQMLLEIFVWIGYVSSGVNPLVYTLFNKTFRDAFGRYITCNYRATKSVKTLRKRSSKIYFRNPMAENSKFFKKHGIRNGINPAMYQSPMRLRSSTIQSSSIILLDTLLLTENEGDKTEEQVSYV

Structure (SMILES)	Plasma concentrations / exposure of compound (I) after oral dosing of prodrug (in words) [1]	inhibition at 10 µM (human 5-HT2B receptor [3]) [%]	Observed metabolite, in vivo PK study after oral dosing (rats) [1]	other results
CCCN1CCC[C@@H]2Cc3c(ccc(OC(=O)C(C)(C)C)c3OC(=O)C(C)(C)C)C[C@H]21 [(Ic), reference compound]	extremely low	–	–	–
CCCc1cc2c(s1)CN[C@@H]1CCc3cc(OC(C)=O)c(OC(C)=O)cc3[C@@H]21 [Adrogolide]	–	–	–	Oral bioavailability [2]: ~4%
CCCN1CCC[C@@H]2Cc3c(ccc(OC(=O)NC)c3OC(=O)NC)C[C@H]21 [Compound (1), (4aR,10aR)-1-propyl-1,2,3,4,4a,5,10,10a-octahydrobenzo[g]quinoline-6,7-diyl bis(methylcarbamate)]	–	3	Compound (I)	–
CCCN1CCC[C@@H]2Cc3c(ccc(OC(=O)NCC)c3OC(=O)NCC)C[C@H]21 [Compound (2), (4aR,10aR)-1-propyl-1,2,3,4,4a,5,10,10a-octahydrobenzo[g]quinoline-6,7-diyl bis(ethylcarbamate)]	–	3	Compound (I)	Observed metabolite, incubation in human plasma [4]: Compound (I)
CCCN1CCC[C@@H]2Cc3c(ccc(OC(=O)N(C)C)c3OC(=O)N(C)C)C[C@H]21 [Compound (3), (4aR,10aR)-1-propyl-1,2,3,4,4a,5,10,10a-octahydrobenzo[g]quinoline-6,7-diyl bis(dimethylcarbamate)]	–	4	Compound (I)	Observed metabolite, incubation in human plasma [4]: Compound (I)
CCCN1CCC[C@@H]2Cc3c(ccc(O)c3O)C[C@H]21 [Compound (I), (4aR,10aR)-1-Propyl-1,2,3,4,4a,5,10,10a-octahydro-benzo[g]quinoline-6,7-diol, reference compound]	–	–	–	Half-life in the plasma assay (in words) ([4]; human plasma incubation): short half-life
CCCN1CCC[C@@H]2CC3=C(CCCC3=O)C[C@H]21 [Compound (Ia), reference compound]	early and high peak concentrations of compound (I)	–	–	5-HT2B agonist effect at single concentration (human 5-HT2B receptor [5]; @30 μM, percent of the control response to 1 μM 5-HT): 58%
CCCN1CCC[C@@H]2Cc3c(ccc4c3OCO4)C[C@H]21 [Compound (Ib), (6aR,10aR)-7-propyl-6,6a,7,8,9,10,10a,11-octahydro-[1,3]dioxolo[4′,5′:5,6]benzo[1,2-g]quinoline, reference compound]	early and high peak concentrations of compound (I)	–	–	5-HT2B receptor agonism (in words) (human 5-HT2B receptor [5]; c.f. example 2 and Table 3): agonist of the 5-HT2B receptor
